# “Also recorded” adds a separate entry of the source.
# Experiments:
# caspase-3 = experiment: NMDA-induced caspase-3 activation; format: cell-based, rat; details: NEPP11 1 μM
# Description: Indeed, we found this to be the case.
# GSH = experiment: Total GSH levels in cortical cultures; format: cell-based; details: cortical cultures, control 46.8±4.5 nmol/mg protein
# Method: Cell cultures, transfection, and glutathione (GSH) measurement. […] Transfection was performed with Lipofectamine 2000 (Invitrogen). In the reporter gene assays, firefly luciferase activity in cell lysates was measured with a luminometer (Promega). Total GSH (reduced and oxidized) was determined as described (Lee et al., Biochem. Biophys. Res. Commun. 280:286-292, 2001).
# One caveat to the mechanism of NEPP and other electrophilic compounds acting at the level of Keap1 to induce HO-1 transcription is that NEPP could potentially react indiscriminately with other thiol-containing compounds in cells. To approach this question, we assessed cellular glutathione (GSH) levels to determine whether NEPP11 would affect this abundant antioxidant thiol. Nepp11 or N-ethylmaleimide (NEM) was added at t=0 and levels of total GSH were measured at the indicated times. GSH content of control cortical cultures (set arbitrarily at 100%) was 46.8±4.5 nmol/mg protein. […] In fact, this scenario seems likely, because the Keap1/Nrf2 pathway regulates the expression of γ-GCL in addition to HO-1 (Itoh et al., Mol. Cell. Biol. 24:36-45, 2004). […]
# Transfections were performed with Lipofectamine 2000 (Invitrogen), and firefly luciferase activity in cell lysates was measured with a luminometer in the reporter gene assays (Promega).
# [1] = tested on: cAMP-responsive element (CRE); experiment: Enhancer element luciferase reporter p3xCREluc; format: cell-based; details: NEPP11 2 μM
# Method: Because the E1 and E2 regions also contain other enhancer elements, we tested the effects of NEPP11 (2 μM) on the expression of luciferase activity derived from these elements, including the cAMP-responsive element (CRE; p3xCREluc), AP-1 binding site (p3xAP1luc), NF-κB binding site (p3xNF-κBluc), NFAT-binding site (p3xNFATluc), ETS-binding site (p3xETSluc), and MEF2-binding site (p3xMEF2luc).
# HO-1 and γ-GCS = experiment: Phase 2 enzyme induction in brain (RT-PCR); format: in vivo, mouse; details: food containing 0.03% CA for a week
# Method: RT-PCR. In order to examine phase 2 gene induction by CA in PC12h cells and brain lysates, RT-PCR of total RNA from cortical cultures was performed using the following primer pairs (Hosoya et al., J. Bioi. Chern. 29:27244-27250, 2005; Kobayashi et al., Mol. Cell. Biol. 26:221-229, 2006): CypA (89 bp), 5′-ACAGGTCCTGGCATCTTGTC-3′ (SEQ ID NO: 18)(sense) and 5′-[…] -3′ (SEQ ID NO: 19)(antisense); H0-1 (284 bp), 5′-CAGTCGCCTCCAGAGTTTCC -3′ (SEQ ID NO: 20)(sense) and 5′- TACAAGGAGGCCATCACCAGC-3′ (SEQ ID NO: 21)(antisense); GCL-M (280 bp), 5′- CTGCTAAACTGTTCATTGTAGG-3′ (SEQ ID NO: 22)(sense) and 5′- CTA TTG GGT TIT ACC TGT G-3′ (SEQ ID NO: 23)(antisense); GCL-C (213 bp), 5′- GTC TIC AGG TGA ACA TIC CAA GC-3′ (SEQ ID NO: 24)(sense) and 5′- TGTTCTTCAGGGGCTCCAGTC-3′ (SEQ 10 NO: 25)(antisense); and NQO1 (212 bp), 5′- GTG TAC AGC ATI GGC CAC AC-3′ (SEQ 10 NO: 26)(sense) and 5′AAATGATGGCCCACAGAAAG-3′ (SEQ ID NO: 27)(antisense).
# Mice were allowed free access to food containing 0.03% CA for a week. Their brains were then removed, and extracts were prepared and measured for GSH and GSSG levels. Under these conditions, CA increased both total GSH+GSSG and the ratio of GSH/GSSG (FIG. 6). […] Therefore, we concluded that orally-administered CA could not only reach the brain but was also effective in activating potentially neuroprotective pathways.
# [2] = tested on: immature cortical neurons; experiment: Oxidative stress (glutamate or rotenone) in immature cortical cultures; format: cell-based, rat; details: CA 3 μM
# Description: Primary cortical cultures and assays for two types of glutamate toxicity. Cerebrocortical neurons have been used as an in vitro system in order to investigate the cellular mechanism of neuronal death caused by glutamate. The level of expression of functional NMDA receptors is key for determining whether excitotoxicity or oxidative glutamate toxicity predominates. With increasing days in vitro (DIV), the expression level of these receptors in cortical cultures increases. […] In light of this background information, in the present study, we prepared cerebrocortical cultures from embryonic day 17 (E17) Sprague-Dawley rats and examined them at DIV2 as an experimental system for oxidative glutamate toxicity (Murphy et al., FASEB J. 4:1624-1633, 1990; Lee et al., J. Biol. Chem. 278:37948-37956, 2003). Rotenone, a complex I inhibitor of the mitochondrial electron-transport chain, also induces oxidative stress in immature cortical cultures (Murphy et al., FASEB J. 4:1624-1633, 1990; Lee et al., J. Biol. Chem. 278:37948-37956, 2003).
# CA protects cortical neurons via activation of the Keap1/Nrf2 pathway. […] Glutamate (2 mM) and rotenone (300 nM) decreased the number of MAP2 and NeuN-positive cells to 30.8±2.5% and 25.8±1.9% of the control value, respectively. In contrast, CA (3 μM) increased cell survival in the face of these insults to 73.8±3.7% and 80.4±3.4%, respectively.
SMILES,NMDA-induced caspase-3 activation (caspase-3),total GSH levels (GSH),activity of p3xCREluc [1],induction of phase 2 enzymes HO-1 and γ-GCS in brain (HO-1 and γ-GCS),"cell survival (MAP2 and NeuN-positive cells), % of the control value ([2]; glutamate 2 mM, glutamate alone 30.8±2.5%) [%]","cell survival (MAP2 and NeuN-positive cells), % of the control value ([2]; rotenone 300 nM, rotenone alone 25.8±1.9%) [%]"
COC(=O)CCCCC/C=C1/C(=O)C=C[C@H]1CCCCCCc1ccc(C)cc1 [NEPP11],inhibited,did not deplete GSH levels; also recorded: transiently increased,slightly depressed,–,–,–
"CC(C)c1cc2c(c(O)c1O)[C@@]1(C(=O)O)CCCC(C)(C)[C@@H]1CC2 [CA, carnosic acid]",–,–,–,significant induction,73.8±3.7,80.4±3.4

# From patent US8466311B2, “Neuroprotective compositions and methods” (Sanford-Burnham Medical Research Institute, priority 2006, dated 2013)
